Data published in patent publication US20030108622A1, “Cancer treatment composition and method using signal transduction modulators and natural plant essential oils as synergists for conventional treatments” (EcoSMART Technologies, Inc., priority 1998, published 2003).

Legend:
Type in all cases: cell-based, human
MCF-7 cells [1] = test: Dose-response of signal transduction modulators on E2-induced cell proliferation, 3H-thymidine incorporation (Example 2)
Procedure: Dose-response of Signal Transduction Modulators on E2-Induced Cell Proliferation To determine the impact of two key signaling proteins, cAMP/PKA system and tyrosine kinase family member, c-Src kinase (p^src60) on estrogen-induced cell proliferation in human epithelial breast cancer cells, MCF-7 cells were cultured in growth DMEM medium supplemented with 10% fetal bovine serum (FBS). At 85% confluence, cells were sub-cultured in 5% FBS serum stripped medium, phenol red free for 24 hours prior to the treatment of the test chemical. […] Tamoxifen (TX) was used in parallel as positive control. Cell proliferation was measured using ^3H-thymidine incorporation. The study was done in triplicate and a control was used with solvent only. Control received solvent only at <0.1% ethanol.

MCF-7 cells [2] = test: Dose-response of tamoxifen on E2-induced cell proliferation, 3H-thymidine incorporation (Example 1)
Procedure: Dose-Response of Tamoxifen on Estrogen (E2)-Induced Cell Proliferation MCF-7 cells were cultured in growth DMEM medium supplemented with 10% fetal bovine serum (FBS). […] […] Cell proliferation was measured using ^3H-thymidine incorporation. The study was done in triplicate and a control was used with solvent only. Control received solvent only at <0.1% ethanol.
In Table 1, percentage of control is calculated either based on the control (solvent only, ethanol 0.1%) or based on the E2 values which is between parenthesis.

MCF-7 cells [3] = test: Effect of FK or GM on TX efficacy against E2-induced cell proliferation, 3H-thymidine incorporation (Example 3)
Procedure: In another experiment cells were treated with 10 nM E2 (=2.7 ng E2/ml) with three concentraion of GM (1, 5 and 10 ng/ml) 24 hours prior to cell proliferation assessment. Tamoxifen (TX) was used in parallel as positive control. Cell proliferation was measured using ^3H-thymidine incorporation. The study was done in triplicate and a control was used with solvent only. Control received solvent only at <0.1% ethanol.

MCF-7 cells [4] = test: Time-course of E2-induced cell growth, cell count using trypan blue exclusion (Example 4); conditions: TX 1 μM alone + E2 10 nM; calculated on control value, FIG. 4
Procedure: Effect of cAMP Inducer on Efficacy and Stability of Tamoxifen MCF-7 cells were cultured in growth DMEM medium supplemented with 10% fetal bovine serum (FBS). At 85% confluence, cells were sub-cultured in 5% FBS serum stripped medium, phenol red free for 24 hours prior to the treatment of the test chemical. Cells were treated with 10 nM E2 (=2.7 ng E2/ml) with and without a mixture of 1 μM FK and 1 μM TX. Cell growth was measured 1, 2 and 5 days following treatment. Cell growth was determined by cell count using trypan blue exclusion. The study was done in duplicate and a control was used with solvent only. Control received solvent only at <. 1% ethanol.

MCF-7 cells [5] = test: Cell growth without E2, 5 days, cell count using trypan blue exclusion (Examples 5-7); conditions: mixtures with TX; conclusion from the Examples, FIGS. 6-9
Procedure: MCF-7 cells were cultured in growth DMEM medium supplemented with 10% fetal bovine serum (FBS). At 85% confluence, cells were sub-cultured in 5% FBS serum stripped medium, phenol red free for 24 hours prior to the treatment of the test chemical. Cells were treated with and without a mixture of either 5 μM FK […] and 1 μM TX (=0.56 ug TX/ml) or a mixture of 1 μM TX (=0.56 ug TX/ml) and 1 μM FK. Cell growth was measured 5 days following treatment. Cell growth was determined by cell count using trypan blue exclusion. The study was done in duplicate and a control was used with solvent only. Control received solvent only at <0.1% ethanol.
MCF-7 cells were cultured in growth DMEM medium supplemented with 10% fetal bovine serum (FBS). At 85% confluence, cells were sub-cultured in 5% FBS serum stripped medium, phenol red free for 24 hours prior to the treatment of the test chemical. Cells were treated with and without a mixture of either 5 ng GM/ml and 5 μM TX (=2.8 ug TX/ml) or a mixture of 10 ng GM/ml and 5 μM TX (=2.8 ug TX/ml). Cell growth was measured 5 days following treatment. Cell growth was determined by cell count using trypan blue exclusion. […]
MCF-7 cells were cultured in growth DMEM medium supplemented with 10% fetal bovine serum (FBS). […] Cell growth was measured 5 days following treatment. Cell growth was determined by cell count using trypan blue exclusion. […]

[6] = TX 5 μM + E2 10 nM, based on solvent control
[7] = TX 5 μM + E2 10 nM, value in parenthesis, based on E2 value
[8] = TX 10 μM + E2 10 nM, based on solvent control

SMILES: C=C[C@@]1(C)CC(=O)[C@]2(O)[C@@]3(C)[C@@H](O)CCC(C)(C)[C@@H]3[C@H](O)[C@H](OC(C)=O)[C@@]2(C)O1 [FK, forskolin]
- % protection (MCF-7 cells [1]; FK 1 μM in the presence of 10 nM E2): 66%
- % protection (MCF-7 cells [1]; FK 5 μM in the presence of 10 nM E2): 78%
- % protection (MCF-7 cells [1]; FK 10 μM in the presence of 10 nM E2): 86%
- activity at 1 µM (MCF-7 cells [1]; Homo sapiens, MCF7, FK 1 μM in the presence of 10 nM E2, read-out: 3H-Thymidine incorporation/μg protein (% of control)): 34%
- activity at 5 µM (MCF-7 cells [1]; Homo sapiens, MCF7, FK 5 μM in the presence of 10 nM E2, read-out: 3H-Thymidine incorporation/μg protein (% of control)): 22%
- activity at 10 µM (MCF-7 cells [1]; Homo sapiens, MCF7, FK 10 μM in the presence of 10 nM E2, read-out: 3H-Thymidine incorporation/μg protein (% of control)): 14%

SMILES: CC/C(=C(\c1ccccc1)c1ccc(OCCN(C)C)cc1)c1ccccc1 [TX, tamoxifen]
- antiestrogenic action (MCF-7 cells [1]; 1-10 μM, Table 2): dose-dependent
- activity at 1 µM (MCF-7 cells [1]; Homo sapiens, MCF7, TX 1 μM in the presence of 10 nM E2, read-out: 3H-Thymidine incorporation/μg protein (% of control)): 79%
- activity at 5 µM (MCF-7 cells [1]; Homo sapiens, MCF7, TX 5 μM in the presence of 10 nM E2, read-out: 3H-Thymidine incorporation/μg protein (% of control)): 54%
- activity at 10 µM (MCF-7 cells [1]; Homo sapiens, MCF7, TX 10 μM in the presence of 10 nM E2, read-out: 3H-Thymidine incorporation/μg protein (% of control)): 25%
- % protection (MCF-7 cells [1]; TX 1 μM in the presence of 10 nM E2): 21%
- % protection (MCF-7 cells [1]; TX 5 μM in the presence of 10 nM E2): 46%
- % protection (MCF-7 cells [1]; TX 10 μM in the presence of 10 nM E2): 75%
- activity at 1 µM (MCF-7 cells [2]; Homo sapiens, MCF7, TX 1 μM, without E2, based on solvent control): 42%
- activity at 5 µM (MCF-7 cells [2]; Homo sapiens, MCF7, TX 5 μM, without E2, based on solvent control): 36%
- activity at 10 µM (MCF-7 cells [2]; Homo sapiens, MCF7, TX 10 μM, without E2, based on solvent control): 33%
- 3H-thymidine incorporation dpm (MCF-7 cells [2]; TX 1 μM + E2 10 nM): 12336 dpm
- 3H-thymidine incorporation dpm/μg protein (MCF-7 cells [2]; TX 1 μM + E2 10 nM): 379.6 dpm/μg protein
- 3H-thymidine incorporation % of control (MCF-7 cells [2]; TX 1 μM + E2 10 nM, based on solvent control): 124%
- % protection (based on E2 value) (MCF-7 cells [2]; TX 1 μM + E2 10 nM, value in parenthesis, based on E2 value): (21) %
- 3H-thymidine incorporation dpm (MCF-7 cells [2]; TX 1 μM, without E2): 2586 dpm
- 3H-thymidine incorporation dpm/μg protein (MCF-7 cells [2]; TX 1 μM, without E2): 129.3 dpm/μg protein
- % protection (MCF-7 cells [2]; TX 1 μM, without E2): 58%
- 3H-thymidine incorporation dpm (MCF-7 cells [2]; TX 5 μM + E2 10 nM): 4007 dpm
- 3H-thymidine incorporation dpm/μg protein (MCF-7 cells [2]; TX 5 μM + E2 10 nM): 260.2 dpm/μg protein
- 3H-thymidine incorporation % of control (MCF-7 cells [2]; [6]): 85%
- % protection (MCF-7 cells [2]; [6]): 15%
- 3H-thymidine incorporation % of control (based on E2 value) (MCF-7 cells [2]; [7]): 53%
- % protection (based on E2 value) (MCF-7 cells [2]; [7]): 47%
- 3H-thymidine incorporation dpm (MCF-7 cells [2]; TX 5 μM, without E2): 1848 dpm
- 3H-thymidine incorporation dpm/μg protein (MCF-7 cells [2]; TX 5 μM, without E2): 112.0 dpm/μg protein
- % protection (MCF-7 cells [2]; TX 5 μM, without E2): 64%
- 3H-thymidine incorporation dpm (MCF-7 cells [2]; TX 10 μM + E2 10 nM): 3239 dpm
- 3H-thymidine incorporation dpm/μg protein (MCF-7 cells [2]; TX 10 μM + E2 10 nM): 118.5 dpm/μg protein
- 3H-thymidine incorporation % of control (MCF-7 cells [2]; [8]): 39%
- % protection (MCF-7 cells [2]; [8]): 61%
- % protection (based on E2 value) (MCF-7 cells [2]; TX 10 μM + E2 10 nM, value in parenthesis, based on E2 value): 75%
- 3H-thymidine incorporation dpm (MCF-7 cells [2]; TX 10 μM, without E2): 1545 dpm
- 3H-thymidine incorporation dpm/μg protein (MCF-7 cells [2]; TX 10 μM, without E2): 99.8 dpm/μg protein
- % protection (MCF-7 cells [2]; TX 10 μM, without E2): 67%
- antagonistic action against the E2-induced cell proliferation (MCF-7 cells [2]; TX 1-10 μM, Table 1): dose-dependent
- potency against the E2-induced cell proliferation (MCF-7 cells [2]; low concentrations 0.56 ug/ml to 2.8 ug/ml (=1 - 5 μM)): potent
- protection against the biological activity of E2 (MCF-7 cells [3]; 1 μM TX alone, FIG. 2): ~25%
- protection against the E2-induced cancer cell growth (MCF-7 cells [3]; 5 μM TX alone, FIG. 2): 45%
- activity at 5 µM (MCF-7 cells [3]; Homo sapiens, MCF7, Table 4: 5 μM TX + E2, E2 10 nM = 100, read-out: 3H-Thymidine incorporation/μg protein (% of control)): 54%
- % protection (MCF-7 cells [3]; Table 4: 5 μM TX + E2 (TX alone)): 46%
- time over which the E2 action is antagonized (MCF-7 cells [4]): up to 48 hr

SMILES: COC1=C2C[C@@H](C)C[C@H](OC)[C@H](O)[C@@H](C)/C=C(\C)[C@H](OC(N)=O)[C@@H](OC)/C=C\C=C(/C)C(=O)NC(=CC1=O)C2=O [GM, geldanamycin]
- 3H-Thymidine incorporation/μg protein (% of control) (MCF-7 cells [1]; GM 1 ng/ml in the presence of 10 nM E2): no effect
- 3H-Thymidine incorporation/μg protein (% of control) (MCF-7 cells [1]; GM 5 ng/ml in the presence of 10 nM E2): no effect
- inhibition of the E2-induced cell proliferation (MCF-7 cells [1]; GM 10 ng/ml): did not inhibit
- % protection (MCF-7 cells [1]; GM 10 ng/ml in the presence of 10 nM E2): 6%
- activity at 0.01 µg/mL (MCF-7 cells [1]; Homo sapiens, MCF7, GM 10 ng/ml in the presence of 10 nM E2, read-out: 3H-Thymidine incorporation/μg protein (% of control)): 94%
- activity at 0.001 µg/mL (MCF-7 cells [3]; Homo sapiens, MCF7, Table 4: GM 1 ng/ml, E2 10 nM = 100, read-out: 3H-Thymidine incorporation/μg protein (% of control)): 100%
- activity at 0.005 µg/mL (MCF-7 cells [3]; Homo sapiens, MCF7, Table 4: GM 5 ng/ml, E2 10 nM = 100, read-out: 3H-Thymidine incorporation/μg protein (% of control)): 100%
- activity at 0.01 µg/mL (MCF-7 cells [3]; Homo sapiens, MCF7, Table 4: GM 10 ng/ml, E2 10 nM = 100, read-out: 3H-Thymidine incorporation/μg protein (% of control)): 90%
- % protection (MCF-7 cells [3]; Table 4: GM 1 ng/ml, E2 10 nM = 100): 0%
- % protection (MCF-7 cells [3]; Table 4: GM 5 ng/ml, E2 10 nM = 100): 0%
- % protection (MCF-7 cells [3]; Table 4: GM 10 ng/ml, E2 10 nM = 100): 10%

SMILES: COc1cccc(-c2cc(=O)c3ccccc3o2)c1N [PD98059]
- synergy with the anticancer activity of tamoxifen in breast cancer cells (MCF-7 cells [5]): synergize the anticancer activity of tamoxifen
